This passage reports change in vivo and inhibition in vivo results from patent US8901116B2, “Method for treating pain, anxiety or depression using carbamoyloxy alkanoyl piperazine compound” (SK Biopharmaceuticals Co., Ltd., priority 2007, dated 2014).

Holding throughout (format): in vivo
For assay [1], the system named is male ICR mouse. The experiment in a line: Elevated plus maze (EPM) test in mouse. The following applies: po, p.o, 1 hour after dosing, 5 minutes observation, read-out: Elevated Plus Maze Change index in Open-Arm Time. From the text: Elevated plus maze (EPM) is one of representative models that examine an anti-anxiety activity of a test material. Equipment used for an EPM test has a crossroad shape raised in a high position off the ground, and is configured in such a cliff shape that both sides of one road are protected with high walls and the other road is free from the wall. Among them, the road in the cliff shape is referred to as an ‘open arm,’ and the road protected by the walls is referred to as a ‘close arm.’ In this case, a level of the anxiety of a mouse may be measured by determining in which arm the mouse stays longer. In general, the mouse stays longer in the close arm than the open arm, but a mouse treated with a medicine showing an anti-anxiety effect stays relatively longer in the open arm. A test material dissolved in a suitable vehicle was orally administered to a male ICR mouse weighing 20 to 25 g at an amount of 10 mg/kg. After 1 hour of the oral administration, the mouse was put on the center of an EPM equipment to measure how long the mouse stays in the open arm within a time range of 5 minutes. The anti-anxiety effect of the test material is represented by the ‘Change index in Open-Arm Time’ {[(open arm duration in test material-administered group−open arm duration in vehicle-administered group)/(open arm duration in vehicle administered group)]×100%}.

Assay [2] deals with male ICR mouse. The assay is described as follows: Acetic acid-induced writhing test in mouse. The following applies: po, p.o, acetic acid i.p. 1 hour after dosing, writhing counted for 10 minutes, read-out: Writhing Test Suppression of pain response. Here is the method: An acetic acid-induced writhing test is one of models for measuring an analgesic effect of drugs. A test material dissolved in a suitable vehicle was orally administered to a male ICR mouse weighing 30 to 35 g at an amount of 10 mg/kg. After 1 hour of the oral administration, […] of an aqueous 0.8% acetic acid solution was intraperitoneally injected into the male ICR mouse to induce the abdominal pain of the male ICR mouse. Right after the administration of acetic acid, the male ICR mouse was put into an empty cage, and the number of writhing behaviors of the mice was counted for 10 minutes. The term “writhing” represents a reflex action in which the mouse overtly extends its abdomen by stretching its hind legs due to the abdominal pain. The analgesic effect of the test material is represented by the ‘suppression of pain response’ {[(Writhing number of vehicle-administered group−Writhing number of Test material—administered group)/(Writhing number of Solvent-administered group)]×100%}.
(In general: In writhing tests, fewer writhes than in controls are read as antinociception.)

In assay [3] the test system is male ICR mouse. The assay is described as follows: Hot plate test in mouse. The following applies: po, p.o, 1 hour after dosing, hot plate 55° C., read-out: Hot Plate Test Increase in latency of avoidance response. The procedure: A hot plate test is one of representative models for measuring an analgesic effect of drugs. A test material dissolved in a suitable vehicle was orally administered to a male ICR mouse weighing 25 to 30 g at an amount of 30 mg/kg. After 1 hour of the oral administration, the mouse was put on a hot plate (55° C.). A latency was recorded from the time right after a mouse is put on a hot plate to the time when avoidance responses (flinching, licking, jumping, etc.) to pain are observed from forefeet or rear legs of the mouse. The analgesic effect of the test material is represented by the ‘Increase in latency of avoidance response’ {[(Latency of avoidance response to pain of Test material-administered group−Latency of avoidance response to pain of vehicle-administered group)/(Latency of avoidance response to pain of Solvent-administered group)]×100%}.
In general terms: Hot-plate and tail-flick tests time the reaction to a heat stimulus.

Assay [4] deals with male ICR mouse. The experiment in a line: Head twitch potentiation induced by 5-HTP (5-HTP potentiation test) in mouse. The following applies: po, 0.5 h, p.o, 5-HTP 80 mg/kg + Carbidopa 25 mg/kg i.p. 30 minutes after dosing, head twitches counted for 2 minutes, negative = 5-HT2A antagonist, read-out: 5-HTP Potentiation Increase rate in Head Twitch No. The procedure:
When 5-hydroxy-L-tryptophan (5-HTP) is administered into a mouse, a head twitch phenomenon is observed since serotonin is increasingly secreted in the mouse. […] By using this principle, it is possible to search an effect of the representative antidepressant agent. A test material dissolved in a suitable vehicle was orally administered to a male ICR mouse weighing 20 to 25 g at an amount of 30 mg/kg. After 30 minutes of the oral administration, 5-HTP (80 mg/kg) and 5-HTP peripheral decarbozylase inhibitor ‘Carbidopa’ (25 mg/kg) were intraperitoneally administered to the mouse. After 30 minutes of the intraperitoneal administration, the mouse was put into an observation cage, and head twitches of the mouse were counted for 2 minutes. The anti-depression effect of the test material is represented by the ‘Increase rate in Head Twitch No.’ {[(Head Twitch No. of Test material-administered group−Head Twitch No. of vehicle-administered group)/(Head Twitch No. of vehicle-administered group)]×100%}. […] In addition to the selective serotonin reuptake inhibitor (SSRI) that has been widely used as an antidepressant agent in the clinical fields, it was tested that 5-HT2A antagonists such as nefazodone and trazodone also have an antidepressant effect.

Regarding `NC(=O)OC(CC(=O)N1CCN(c2ccc(F)cc2)CC1)c1ccccc1` (centres unmarked) [Example 1, carbamic acid 3-[4-(4-fluoro-phenyl)-piperazin-1-yl]-3-oxo-1-phenyl-propyl ester], in the assay on male ICR mouse [1], the change in vivo at 10 mg/kg worked out at 25.6%. Moreover, in the assay on male ICR mouse [2], the inhibition in vivo at 10 mg/kg was 73.5%. For the same compound, the change in vivo at 30 mg/kg in the assay with male ICR mouse [3] was 17%; in the assay on male ICR mouse [4], -65.7%.
For the compound `NC(=O)OC(CC(=O)N1CCN(c2ccc(Cl)c(Cl)c2)CC1)c1ccccc1` (centres unmarked) [Example 3, carbamic acid 3-[4-(3,4-dichloro-phenyl)-piperazin-1-yl]-3-oxo-1-phenyl-propyl ester], the change in vivo at 10 mg/kg in the assay on male ICR mouse [1] worked out at 9.7%. Besides, in the assay on male ICR mouse [2], the inhibition in vivo at 10 mg/kg came to 65%. For the same compound, the change in vivo at 30 mg/kg in the assay on male ICR mouse [3] came out at 38.5%; with male ICR mouse [4], 54.5%.
Taken in the same sequence, the figures for `Cc1ccc(N2CCN(C(=O)CC(OC(N)=O)c3ccccc3)CC2)cc1` (centres unmarked) [Example 4, carbamic acid 3-oxo-1-phenyl-3-(4-p-tolyl-piperazin-1-yl)-propyl ester] were 41.1%, 74.6%, 34.1% and -7.1%.
The corresponding values for `NC(=O)OC(CC(=O)N1CCN(c2cc(Cl)cc(Cl)c2)CC1)c1ccccc1` (centres unmarked) [Example 10, carbamic acid 3-[4-(3,5-dichloro-phenyl)-piperazin-1-yl]-3-oxo-1-phenyl-propyl ester] are 27.3%, 26%, 14.8% and 85.7%.
The corresponding values for `COc1cc(OC)cc(N2CCN(C(=O)CC(OC(N)=O)c3ccccc3)CC2)c1` (centres unmarked) [Example 11, carbamic acid 3-[4-(3,5-dimethoxy-phenyl)-piperazin-1-yl]-3-oxo-1-phenyl-propyl ester] are 19.8%, 5.5%, 46.1% and 31.3%.
Regarding `NC(=O)OC(CC(=O)N1CCN(c2cccc(Cl)c2Cl)CC1)c1ccccc1` (centres unmarked) [Example 12, carbamic acid 3-[4-(2,3-dichloro-phenyl)-piperazin-1-yl]-3-oxo-1-phenyl-propyl ester], the change in vivo at 10 mg/kg in the assay with male ICR mouse [1] is 41.1%. Besides, the inhibition in vivo at 10 mg/kg in the assay on male ICR mouse [2] stood at 37%. Also, the change in vivo at 30 mg/kg stood at 46.8% in the assay on male ICR mouse [3] and 10% in the assay with male ICR mouse [4].
For the compound `NC(=O)OC(CC(=O)N1CCN(c2ccc(F)cc2F)CC1)c1ccccc1` (centres unmarked) [Example 13, carbamic acid 3-[4-(2,4-difluoro-phenyl)-piperazin-1-yl]-3-oxo-1-phenyl-propyl ester], the change in vivo at 10 mg/kg in the assay with male ICR mouse [1] worked out at 12.6%. In addition, the inhibition in vivo at 10 mg/kg with male ICR mouse [2] came out at 64%. Besides, the change in vivo at 30 mg/kg in the assay on male ICR mouse [3] is 21.4%; in the assay on male ICR mouse [4] it was -60%.
Taken in the same sequence, the figures for `NC(=O)OC(CC(=O)N1CCN(c2ccccc2)CC1)c1ccc(Cl)cc1` (centres unmarked) [Example 16, carbamic acid 1-(4-chloro-phenyl)-3-oxo-3-(4-phenyl-piperazin-1-yl)-propyl ester] were 1.3%, 37.3%, 19.5% and 140%.
As for `CC(C)(C)c1ccc(N2CCN(C(=O)CC(OC(N)=O)c3ccccc3)CC2)cc1` (centres unmarked) [Example 17, carbamic acid 3-[4-(4-tert-butyl-phenyl)-piperazin-1-yl]-3-oxo-1-phenyl-propyl ester], the change in vivo at 10 mg/kg with male ICR mouse [1] worked out at 34%. For the same compound, the inhibition in vivo at 10 mg/kg in the assay on male ICR mouse [2] stood at 25.3%. In addition, the change in vivo at 30 mg/kg in the assay with male ICR mouse [3] came to 29.4%; in the assay with male ICR mouse [4] it was 10%.
Regarding `NC(=O)OC(CC(=O)N1CCN(c2ccc(O)cc2)CC1)c1ccccc1` (centres unmarked) [Example 18, carbamic acid 3-[4-(4-hydroxy-phenyl)-piperazin-1-yl]-3-oxo-1-phenyl-propyl ester], the change in vivo at 10 mg/kg with male ICR mouse [1] was determined as 16.1%. Also, the inhibition in vivo at 10 mg/kg in the assay on male ICR mouse [2] worked out at 30.6%. The values for the change in vivo at 30 mg/kg in the assay with male ICR mouse [3] and in the assay with male ICR mouse [4] were 26.4% and -23.4%, respectively.
As to `COc1ccc(N2CCN(C(=O)CC(OC(=O)N(C)C)c3ccccc3)CC2)cc1` (centres unmarked) [Example 19, dimethyl-carbamic acid 3-[4-(4-methoxy-phenyl)-piperazin-1-yl]-3-oxo-1-phenyl-propyl ester], the change in vivo at 10 mg/kg in the assay on male ICR mouse [1] worked out at 0%. The inhibition in vivo at 10 mg/kg in the assay with male ICR mouse [2] was found to be 34.2%. The values for the change in vivo at 30 mg/kg with male ICR mouse [3] and in the assay on male ICR mouse [4] were 49.4% and 60%, respectively.
The corresponding values for `Cc1ccc(N2CCN(C(=O)CC(OC(N)=O)c3ccccc3)CC2)cc1C` (centres unmarked) [Example 20, carbamic acid 3-[4-(3,4-dimethyl-phenyl)-piperazin-1-yl]-3-oxo-1-phenyl-propyl ester] are 45.4%, 14.6%, 45.4% and -6.3%.
As for `NC(=O)OC(CC(=O)N1CCN(C(c2ccc(F)cc2)c2ccc(F)cc2)CC1)c1ccccc1` (centres unmarked) [Example 21, carbamic acid 3-{4-[bis-(4-fluoro-phenyl)-methyl]-piperazin-1-yl}-3-oxo-1-phenyl-propyl ester], in the assay on male ICR mouse [1], the change in vivo at 10 mg/kg amounted to 67.5%. For the same compound, the inhibition in vivo at 10 mg/kg with male ICR mouse [2] turned out to be 32.5%. The change in vivo at 30 mg/kg in the assay on male ICR mouse [3] was 51.4%; in the assay on male ICR mouse [4], -7%.
Turning to `COc1ccc(N2CCN(C(=O)CCC(OC(N)=O)c3ccccc3)CC2)cc1OC` (centres unmarked) [Example 41, carbamic acid 4-[4-(3,4-dimethoxy-phenyl)-piperazin-1-yl]-4-oxo-1-phenyl-butyl ester], the inhibition in vivo at 10 mg/kg in the assay with male ICR mouse [2] is 31.2%. The change in vivo at 30 mg/kg in the assay on male ICR mouse [3] was determined as 28.7%.
For the compound `NC(=O)OC(CC(=O)N1CCN(c2ccccc2)CC1)c1ccccc1[N+](=O)[O-]` (centres unmarked) [Example 42, carbamic acid 1-(2-nitro-phenyl)-3-oxo-3-(4-phenyl-piperazin-1-yl)-propyl ester], the change in vivo at 10 mg/kg with male ICR mouse [1] turned out to be 27.3%. Besides, the change in vivo at 30 mg/kg in the assay with male ICR mouse [4] is 33.3%.
On to `COc1ccc(N2CCN(C(=O)C[C@H](OC(N)=O)c3ccccc3)CC2)cc1OC` [Example 65, (S)-carbamic acid 3-[4-(3,4-dimethoxy-phenyl)-piperazin-1-yl]-3-oxo-1-phenyl-propyl ester], for which, in the assay on male ICR mouse [1], the change in vivo at 10 mg/kg amounted to 74.7%. Further, the change in vivo at 30 mg/kg was found to be 38.6% with male ICR mouse [3] and 91.6% in the assay with male ICR mouse [4].
Consider `COc1ccc(N2CCN(C(=O)C[C@H](OC(N)=O)c3ccccc3)CC2)cc1` [Example 69, (S)-carbamic acid 3-[4-(4-methoxy-phenyl)-piperazin-1-yl]-3-oxo-1-phenyl-propyl ester], for which the change in vivo at 10 mg/kg in the assay with male ICR mouse [1] turned out to be 57.3%. The figures for the change in vivo at 30 mg/kg in the assay with male ICR mouse [3] and with male ICR mouse [4] were 22.9% and -14.3%, respectively.
